Patent publication US12215100B2, “Anticancer compounds” (Pharma Mar, S.A., priority 2018, dated 2025)

Assays:
Type in all cases: cell-based, human
PSN-1 = assay: SRB colorimetric cytotoxicity assay, PSN-1; details: Homo sapiens, pancreatic adenocarcinoma
Excerpt: (§1) The aim of this assay is to evaluate the in vitro cytostatic (ability to delay or arrest tumor cell growth) or cytotoxic (ability to kill tumor cells) activity of the samples being tested.
(§2) A colorimetric assay, using sulforhodamine B (SRB) reaction has been adapted to provide a quantitative measurement of cell growth and viability (following the technique described by V. Vichai and K. Kirtikara (2006) Nature Protoc. 1, 1112-1116.)
(§3) This form of assay employs 96-well cell culture microplates. All the cell lines used in this study were obtained from the American Type Culture Collection (ATCC), unless otherwise indicated, and derive from different types of human cancer.
(§4) Cells were maintained in Dulbecco's Modified Eagle Medium (DMEM) (for A549, HT-29 and MDA-MB-231) or RPMI (for PSN-1) supplemented with 10% Fetal Bovine Serum (FBS), 2 mM L-glutamine, 100 U/mL penicillin and 100 U/mL streptomycin at 37° C., 5% CO2 and 98% humidity. For the experiments, cells were harvested from subconfluent cultures using trypsinization and resuspended in fresh medium before counting and plating.
(§5) Cells were seeded in 96 well microtiter plates, at 5×10^3 cells per well in aliquots of 150 μL, and allowed to attach to the plate surface for 18 hours (overnight) in drug free medium. After that, one control (untreated) plate of each cell line was fixed (as described below) and used for time zero reference value. […] After 72 hours treatment, the antitumor effect was measured by using the SRB methodology: Briefly, cells were washed twice with PBS, fixed for 15 min in 1% glutaraldehyde solution at room temperature, rinsed twice in PBS, and stained in 0.4% SRB solution for 30 min at room temperature. Cells were then rinsed several times with 1% acetic acid solution and air-dried at room temperature. SRB was then extracted in 10 mM trizma base solution and the absorbance measured in an automated spectrophotometric plate reader at 490 nm. Effects on cell growth and survival were estimated by applying the NCI algorithm (Boyd M R and Pauli K D. Drug Dev Res. 1995, 34, 91-104).
(§6) Using the mean±SD of triplicates, a dose-response curve was automatically generated using nonlinear regression analysis to a 4-parameter logistic curve. Three reference parameters were calculated (NCI algorithm) by automatic interpolation: GI50=compound concentration that produces 50% cell growth inhibition, as compared to control cultures; TGI=total cell growth inhibition (cytostatic effect), as compared to control cultures, and LC50=compound concentration that produces 50% net cell killing (cytotoxic effect).

A549 = assay: SRB colorimetric cytotoxicity assay, A549; details: Homo sapiens, lung carcinoma (NSCLC)
Excerpt: as §1, §2, §3, §4, §5, §6

MDA-MB-231 = assay: SRB colorimetric cytotoxicity assay, MDA-MB-231; details: Homo sapiens, breast adenocarcinoma
Excerpt: as §1, §2, §3, §4, §5, §6

HT29 = assay: SRB colorimetric cytotoxicity assay, HT29; details: Homo sapiens, colorectal adenocarcinoma
Excerpt: as §1, §2, §3, §4, §5, §6

[1] = MDA-MB-231, 72 h, 72 hours treatment
[2] = HT-29, 72 h, 72 hours treatment

With `C=CCOc1cc([C@@H](CCC)NC(=O)[C@]2(C)CSC(/C(C)=N/O[C@H]3O[C@H](CO)[C@@H](O)[C@@H]4OC(C)(C)O[C@H]34)=N2)oc(=O)c1` [Compound 111] the GI50 (PSN-1; PSN1, 72 h, 72 hours treatment) was 0.0377 µM, the GI50 (A549; A549, 72 h, 72 hours treatment) was 0.0262 µM and the GI50 (MDA-MB-231; [1]) was 0.0295 µM. For the same molecule, the GI50 (HT29; [2]) was 0.0246 µM.
`C=CCOc1cc([C@@H](CCC)NC(=O)[C@]2(C)CSC(/C(C)=N/O[C@H]3O[C@H](CO)[C@@H](O)[C@H](O)[C@@H]3O)=N2)oc(=O)c1` [Compound 112] gave a GI50 (PSN-1; PSN1, 72 h, 72 hours treatment) of 1.23 µM, a GI50 (A549; A549, 72 h, 72 hours treatment) of 4.04 µM and a GI50 (MDA-MB-231; [1]) of 2.11 µM. It also gave a GI50 (HT29; [2]) of 1.11 µM.
`C=CCOc1cc([C@@H](CCC)NC(=O)[C@]2(C)CSC(/C(C)=N/O[Si](c3ccccc3)(c3ccccc3)C(C)(C)C)=N2)oc(=O)c1` [Compound 113] gave a GI50 (PSN-1; PSN1, 72 hours treatment) of 0.0147 µM, a GI50 (A549; A549, 72 hours treatment) of 0.0152 µM and a GI50 (MDA-MB-231; MDA-MB-231, 72 hours treatment) of 0.00836 µM. It also gave a GI50 (HT29; HT-29, 72 hours treatment) of 0.00557 µM.
Molecule `C=CCOc1cc([C@@H](CCC)NC(=O)[C@]2(C)CSC(/C(C)=N/OCCCCO)=N2)oc(=O)c1` [Compound 115] has a GI50 (PSN-1; PSN1, 72 h, 72 hours treatment) of 0.0136 µM, a GI50 (A549; A549, 72 h, 72 hours treatment) of 0.0111 µM and a GI50 (MDA-MB-231; [1]) of 0.0119 µM. The GI50 (HT29; [2]) was 0.00584 µM.
Molecule `CCC[C@@H](NC(=O)[C@]1(C)CSC(/C(C)=N/CCCNC(=O)OC(C)(C)C)=N1)c1cc(OCC2CC2)cc(=O)o1` [Compound 116] has a GI50 (PSN-1; PSN1, 72 h, 72 hours treatment) of 0.302 µM, a GI50 (A549; A549, 72 h, 72 hours treatment) of 0.302 µM and a GI50 (MDA-MB-231; [1]) of 0.195 µM. For the same molecule, the GI50 (HT29; [2]) was 0.249 µM.
`C=CCOc1cc([C@@H](CCC)NC(=O)[C@]2(C)CSC(C(C)N)=N2)oc(=O)c1` (stereo partly shown) [Compound 117] gave a GI50 (PSN-1; PSN1, 72 h, 72 hours treatment) of 4.88 µM, a GI50 (A549; A549, 72 h, 72 hours treatment) of 3.02 µM and a GI50 (MDA-MB-231; [1]) of 4.65 µM. The GI50 (HT29; [2]) was 3.49 µM.
For `CCC[C@@H](NC(=O)[C@]1(C)CSC(C(C)=O)=N1)c1cccc(=O)o1` [Compound 127], the GI50 (PSN-1; PSN1, 72 h, 72 hours treatment) was 18.7 µM, the GI50 (A549; A549, 72 h, 72 hours treatment) was greater than 29.7 µM and the GI50 (MDA-MB-231; [1]) was 8.62 µM. For the same molecule, the GI50 (HT29; [2]) was 14 µM.
`CCC[C@@H](NC(=O)[C@]1(C)CSC(/C(C)=N/O)=N1)c1cccc(=O)o1` [Compound 128] showed a GI50 (PSN-1; PSN1, 72 h, 72 hours treatment) of 0.0882 µM, a GI50 (A549; A549, 72 h, 72 hours treatment) of 0.0911 µM and a GI50 (MDA-MB-231; [1]) of 0.285 µM. It also gave a GI50 (HT29; [2]) of 0.105 µM.
In the case of `CCC[C@@H](NC(=O)[C@@]1(C)CSC(C(C)(OCC)OCC)=N1)c1cc(OC)cc(=O)o1` [Compound 129], the GI50 (PSN-1; PSN1, 72 h, 72 hours treatment) is reported as 5.45 µM, the GI50 (A549; A549, 72 h, 72 hours treatment) is reported as 6.13 µM and the GI50 (MDA-MB-231; [1]) is reported as 3.86 µM. For the same molecule, the GI50 (HT29; [2]) was 3.63 µM.
`C=CCOc1cc([C@@H](CCC)NC(=O)[C@@]2(C)CSC(C(C)(OCC)OCC)=N2)oc(=O)c1` [Compound 130] showed a GI50 (PSN-1; PSN1, 72 h, 72 hours treatment) of 0.364 µM, a GI50 (A549; A549, 72 h, 72 hours treatment) of 0.214 µM and a GI50 (MDA-MB-231; [1]) of 0.364 µM. For the same molecule, the GI50 (HT29; [2]) was 0.206 µM.
Molecule `CCC[C@@H](NC(=O)[C@@]1(C)CSC(C(C)(OCC)OCC)=N1)c1cc(OCC2CC2)cc(=O)o1` [Compound 131] has a GI50 (PSN-1; PSN1, 72 h, 72 hours treatment) of 0.312 µM, a GI50 (A549; A549, 72 h, 72 hours treatment) of 0.208 µM and a GI50 (MDA-MB-231; [1]) of 0.333 µM. For the same molecule, the GI50 (HT29; [2]) was 0.196 µM.
Work on `C=CCOc1cc([C@@H](CCC)NC(=O)[C@@]2(C)CSC(C(C)=O)=N2)oc(=O)c1` [Compound 133] yielded a GI50 (PSN-1; PSN1, 72 h, 72 hours treatment) of 5.61 µM, a GI50 (A549; A549, 72 h, 72 hours treatment) of 9.43 µM and a GI50 (MDA-MB-231; [1]) of 3.82 µM. For the same molecule, the GI50 (HT29; [2]) was 4.59 µM.
`CCC[C@@H](NC(=O)[C@@]1(C)CSC(/C(C)=N/O)=N1)c1cc(OC)cc(=O)o1` [Compound 135] gave a GI50 (PSN-1; PSN1, 72 h, 72 hours treatment) of 1.26 µM, a GI50 (A549; A549, 72 h, 72 hours treatment) of 2.46 µM and a GI50 (MDA-MB-231; [1]) of 2.33 µM. It also gave a GI50 (HT29; [2]) of 1.26 µM.
With `C=CCOc1cc([C@@H](CCC)NC(=O)[C@@]2(C)CSC(/C(C)=N/O)=N2)oc(=O)c1` [Compound 136] the GI50 (PSN-1; PSN1, 72 h, 72 hours treatment) was 0.081 µM, the GI50 (A549; A549, 72 h, 72 hours treatment) was 0.0712 µM and the GI50 (MDA-MB-231; [1]) was 0.0785 µM. It also gave a GI50 (HT29; [2]) of 0.0859 µM.
In the case of `CCC[C@@H](NC(=O)[C@@]1(C)CSC(/C(C)=N/O)=N1)c1cc(OCC2CC2)cc(=O)o1` [Compound 137], the GI50 (PSN-1; PSN1, 72 h, 72 hours treatment) is reported as 0.145 µM, the GI50 (A549; A549, 72 h, 72 hours treatment) is reported as 0.126 µM and the GI50 (MDA-MB-231; [1]) is reported as 0.149 µM. The GI50 (HT29; [2]) was 0.109 µM.
`COc1cc([C@@H](CCC(F)(F)F)NC(=O)[C@]2(C)CSC(/C(C)=N/O)=N2)oc(=O)c1` [Compound 140] showed a GI50 (PSN-1; PSN1, 72 h, 72 hours treatment) of 0.643 µM, a GI50 (A549; A549, 72 h, 72 hours treatment) of 0.666 µM and a GI50 (MDA-MB-231; [1]) of 0.459 µM. It also gave a GI50 (HT29; [2]) of 0.344 µM.
